Entries after “also recorded” stand apart in the source; their conditions may differ.
Columns and labels:
[1] = test system: peptide-pulsed TISI cells; test: IFN-gamma ELISPOT assay on CTLs induced with peptide; type: cell-based, human; settings: CTLs from HLA-A*2402 positive donor after 3rd peptide stimulation, versus target cells not pulsed with peptide
Source text: Monocyte-derived dendritic cells (DCs) were used as antigen-presenting cells to induce cytotoxic T lymphocyte (CTL) responses against peptides presented on human leukocyte antigen (HLA). DCs were generated in vitro as described elsewhere (Nakahara S et al., Cancer Res 2003, 63(14): 4112-8). Specifically, peripheral blood mononuclear cells isolated from a normal volunteer (HLA-A*2402 positive) by Ficoll-Plaque (Pharmacia) solution were separated by adherence to a plastic tissue culture dish (Becton Dickinson) so as to enrich them as the monocyte fraction. The monocyte-enriched population was cultured in the presence of 1000 U/ml of granulocyte-macrophage colony-stimulating factor (R&D System) and 1000 U/ml of interleukin (IL)-4 (R&D System) in AIM-V Medium (Invitrogen) containing 2% heat-inactivated autologous serum (AS). After 7 days of culture, the cytokine-induced DCs were pulsed with 20 micro-g/ml of each of the synthesized peptides in the presence of 3 micro-g/ml of beta 2-microglobulin for 3 hr at 37 degrees C. in AIM-V Medium. The generated cells appeared to express DC-associated molecules, such as CD80, CD83, CD86 and HLA class II, on their cell surfaces (data not shown). These peptide-pulsed DCs were then inactivated by X-irradiated (20 Gy) and mixed at a 1:20 ratio with autologous CD8+ T cells, obtained by positive selection with CD8 Positive Isolation Kit (Dynal). These cultures were set up in 48-well plates (Corning); each well contained 1.5×10^4 peptide-pulsed DCs, 3×10^5 CD8+ T cells and 10 ng/ml of IL-7 (R&D System) in 0.5 ml of AIM-V/2% AS medium. Three days later, these cultures were supplemented with IL-2 (CHIRON) to a final concentration of 20 IU/ml. On day 7 and 14, the T cells were further stimulated with the autologous peptide-pulsed DCs. The DCs were prepared each time by the same way described above. CTL was tested against peptide-pulsed TISI cells after the 3rd round of peptide stimulation on day 21 (Tanaka H et al., Br J Cancer 2001, 84(1): 94-9; Umano Y et al., Br J Cancer 2001, 84(8): 1052-7; Uchida N et al., Clin Cancer Res 2004, 10(24): 8577-86; Suda T et al., Cancer Sci 2006, 97(5): 411-9; Watanabe T et al., Cancer Sci 2005, 96(8): 498-506).
(§1) Specifically, peptide-pulsed TISI (1×10^4/well) was prepared as stimulator cells. Cultured cells in 48 wells were used as responder cells. IFN-gamma ELISPOT assay and IFN-gamma ELISA assay were performed under manufacture procedure.

[2] = test system: peptide-pulsed TISI cells; test: IFN-gamma ELISA assay of CTL lines; type: cell-based, human; settings: target cells pulsed with corresponding peptide versus without peptide pulse
Description: CTLs were expanded in culture using the method similar to the one described by Riddell et al. (Walter E A et al., N Engl J Med 1995, 333(16): 1038-44; Riddell S R et al., Nat Med 1996, 2(2): 216-23). A total of 5×10^4 CTLs were suspended in 25 ml of AIM-V/5% AS medium with 2 kinds of human B-lymphoblastoid cell lines, inactivated by Mitomycin C, in the presence of 40 ng/ml of anti-CD3 monoclonal antibody (Pharmingen). One day after initiating the cultures, 120 IU/ml of IL-2 were added to the cultures. The cultures were fed with fresh AIM-V/5% AS medium containing 30 IU/ml of IL-2 on days 5, 8 and 11 (Tanaka H et al., Br J Cancer 2001, 84(1): 94-9; Umano Y et al., Br J Cancer 2001, 84(8): 1052-7; Uchida N et al., Clin Cancer Res 2004, 10(24): 8577-86; Suda T et al., Cancer Sci 2006, 97(5): 411-9; Watanabe T et al., Cancer Sci 2005, 96(8): 498-506).
as §1

[3] = test system: COS7 cells transfected with both WDHD1 and HLA-A*2402; test: Specific CTL activity against target cells expressing WDHD1 and HLA-A*2402; type: cell-based, African green monkey; settings: COS7 expressing both WDHD1 and HLA-A*2402; listed as WDHD1-A24-9-844
Source text: (§2) The cDNA encoding an open reading frame of target genes or HLA-A*2402 was amplified by PCR. The PCR-amplified product was cloned into the expression vector. The plasmids were transfected into COS7, which is the target genes and HLA-A*2402-null cell line, using lipofectamine 2000 (Invitrogen) according to the manufacturer's recommended procedures. After 2 days from transfection, the transfected cells were harvested with versene (Invitrogen) and used as the target cells (5×10^4 cells/well) for CTL activity assay.
(§3) The established CTL lines and clone raised against each peptide were examined for the ability to recognize target cells that express WDHD1 and HLA-A*2402 molecule. […] COS7 cells transfected with either full length of WDHD1 or HLA-A* 2402 were prepared as the controls.

[4] = test system: peptide-pulsed TISI cells; test: IFN-gamma ELISA assay of CTL clone established by limiting dilution; type: cell-based, human; settings: target cells pulsed with peptide versus not pulsed; listed as WDHD1-A24-9-844
Description: The dilutions were made to have 0.3, 1, and 3 CTLs/well in 96 round-bottomed micro titer plate (Nalge Nunc International). CTLs were cultured with 1×10^4 cells/well of 2 kinds of human B-lymphoblastoid cell lines, 30 ng/ml of anti-CD3 antibody, and 125 U/ml of IL-2 in a total of 150 micro-l/well of AIM-V Medium containing 5% AS. 50 micro-l/well of IL-2 were added to the medium 10 days later so to reach a final concentration of 125 U/ml IL-2. CTL activity was tested on the 14th day, and CTL clones were expanded using the same method as described above (Uchida N et al., Clin Cancer Res 2004, 10(24): 8577-86; Suda T et al., Cancer Sci 2006, 97(5): 411-9; Watanabe T et al., Cancer Sci 2005, 96(8): 498-506).
as §1

[5] = test system: COS7 cells transfected with either full length of WDHD1 or HLA-A*2402; test: Specific CTL activity against control target cells; type: cell-based, African green monkey; settings: COS7 expressing either HLA-A*2402 or WDHD1 only
Source text: as §2, §3

EQFWRSVIF [SEQ ID NO: 19]
peptide specific CTL activity, IFN-gamma production [1]: potent IFN-gamma production

GYAICGLAW [SEQ ID NO: 14]
peptide specific CTL activity, IFN-gamma production [1]: potent IFN-gamma production

GYSNTATEW [SEQ ID NO: 13]
IFN-gamma production of CTL lines [2]: potent IFN-gamma production | specific CTL activity of CTL clone [3]: potent CTL activity; also recorded: specific CTL activity | peptide specific CTL activity, IFN-gamma production [1]: potent IFN-gamma production | IFN-gamma production of CTL clone [4]: potent IFN-gamma production | specific CTL activity of CTL clone against controls [5]: no significant specific CTL activity

KQILHGDPL [SEQ ID NO: 8]
peptide specific CTL activity, IFN-gamma production [1]: potent IFN-gamma production

KYASRSRKL [SEQ ID NO: 1]
peptide specific CTL activity, IFN-gamma production ([1]; listed as WDHD1-A24-9-798): not observed

RSVIFHNHL [SEQ ID NO: 6]
peptide specific CTL activity, IFN-gamma production [1]: potent IFN-gamma production

SYLAWIGFSA [SEQ ID NO: 29]
IFN-gamma production of CTL lines [2]: potent IFN-gamma production | peptide specific CTL activity, IFN-gamma production [1]: potent IFN-gamma production

TWSPCGQYL [SEQ ID NO: 12]
IFN-gamma production of CTL lines [2]: potent IFN-gamma production | peptide specific CTL activity, IFN-gamma production [1]: potent IFN-gamma production

From patent publication US9056890B2, “WDHD1 peptides and vaccines including the same” (OncoTherapy Science Inc., priority 2010, dated 2015)
